The source of these data is ChEMBL document CHEMBL4118134, “Design, synthesis, and evaluation of novel N-1 fluoroquinolone derivatives: Probing for binding contact with the active site tyrosine of gyrase” (Bioorg Med Chem Lett, 2018).

pIC50: −log10 of the molar value. The source made the active and inactive calls. The rule behind the calls is not given here.

Assay [1] deals with T1, DNA gyrase (Escherichia coli) (UniProt P0AES6+P0AES4). Kind of assay: Inhibition of Escherichia coli DNA gyrase subunit GyrA/GyrB supercoiling activity at 10 uM using relaxed pBR322 DNA incubated for 15 mins by ethidium bromide staining based gel electrophoresis method. It is filed as protein-complex assay.
The target of assay [2] is T1, DNA gyrase (Escherichia coli). Kind of assay: Poison activity at Escherichia coli DNA gyrase assessed as increase in linear DNA generation at 10 uM using supercoiled pBR322 DNA incubated for 10 mins by ethidium bromide staining based gel electrophoresis based DNA cleavage assay relative to untreated control. It is filed as protein-complex assay.
Assay [3] in a line: Inhibition of human topoisomerase 2 assessed as reduction in decatenatation of kinetoplast DNA incubated for 15 mins by ethidium bromide staining based gel electrophoresis method.
The species entered for assay [4] is Homo sapiens. The assay can be described thus: Poison activity at human topoisomerase 2 assessed as increase in linear DNA generation at 5 to 10 uM incubated for 10 mins by ethidium bromide staining based gel electrophoresis based DNA cleavage assay relative to untreated control.
In another assay the target is DNA gyrase (Escherichia coli, UniProt P0AES4+P0AES6). Kind of assay: Inhibition of Escherichia coli DNA gyrase subunit GyrA/GyrB supercoiling activity using relaxed pBR322 DNA incubated for 15 mins by ethidium bromide staining based gel electrophoresis method. The class given is protein-complex assay.
The species entered for assay [5] is Homo sapiens. Kind of assay: Inhibition of human topoisomerase 2 assessed as reduction in decatenatation of kinetoplast DNA at 200 uM incubated for 15 mins by ethidium bromide staining based gel electrophoresis method.

For `COc1c(N2CC[C@@H](CN)C2)c(F)cc2c(=O)c(C(=O)O)cn(CCCCCN)c12`, the inhibition in assay [1] came to 12.3%. Besides, the fold change (FC) in assay [2] was less than 2.

Take `COc1c(N2CC[C@@H](CN)C2)c(F)cc2c(=O)c(C(=O)O)cn(CCc3ccccc3)c12`: in assay [1], the inhibition is 11%. The fold change (FC) in assay [2] is less than 2.

For `COc1c(N2CC[C@@H](CN)C2)c(F)cc2c(=O)c(C(=O)O)cn(CCCCN3C(=O)c4ccccc4C3=O)c12`, the inhibition in assay [1] amounted to 20.4%. Further, the fold change (FC) in assay [2] was less than 2.

Consider `COc1c(N2CC[C@@H](CN)C2)c(F)cc2c(=O)c(C(=O)O)cn(CCCN3C(=O)c4ccccc4C3=O)c12`, for which the inhibition in assay [1] is less than 5%. In addition, the fold change (FC) in assay [2] was less than 2.

In assay [1], `COc1c(N2CC[C@@H](CN)C2)c(F)cc2c(=O)c(C(=O)O)cn(CCCCN)c12` displayed an inhibition of 25.7%. In addition, the fold change (FC) in assay [2] was less than 2.

In assay [1], `CCN1CCN(c2c(F)cc3c(=O)c(C(=O)O)cn(Cc4ccccc4)c3c2OC)CC1` returned an inhibition of 23.3%. The fold change (FC) in assay [2] is less than 2.

For the molecule `COc1cc([C@@H]2c3cc4c(cc3[C@@H](O[C@@H]3O[C@@H]5CO[C@@H](C)O[C@H]5[C@H](O)[C@H]3O)[C@H]3COC(=O)[C@H]23)OCO4)cc(OC)c1O` [ETOPOSIDE], the pIC50 in assay [3] is 4.22. Besides, in the assay filed under Homo sapiens [4], the Activity was 400 to 800%.

Take `CCN1CCN(c2c(F)cc3c(=O)c(C(=O)O)cn(CCCCCN)c3c2OC)CC1`: the inhibition in assay [1] is less than 5%. Moreover, the fold change (FC) in assay [2] is less than 2.

In turn, `COc1ccc(Cn2cc(C(=O)O)c(=O)c3cc(F)c(N4CC[C@@H](CN)C4)c(OC)c32)cc1` yielded an inhibition in assay [1] of 25.2%. Also, the fold change (FC) in assay [2] was less than 2.

The molecule `COc1c(N2CC[C@@H](CN)C2)c(F)cc2c(=O)c(C(=O)O)cn(CCCc3ccccc3)c12` displayed an inhibition in assay [1] of 27.1%. Further, the fold change (FC) in assay [2] was less than 2.

For the molecule `COc1c(N2CC[C@@H](CN)C2)c(F)cc2c(=O)c(C(=O)O)cn(Cc3ccccc3)c12`, the inhibition in assay [1] is 37.7%. Besides, the fold change (FC) in assay [2] was less than 2.

In turn, `COc1c(N2CC[C@@H](CN)C2)c(F)cc2c(=O)c(C(=O)O)cn(CCCCCN3C(=O)c4ccccc4C3=O)c12` had an inhibition in assay [1] of 20.2%. Moreover, the fold change (FC) in assay [2] is less than 2.

In assay [1], `COc1c(N2CC[C@@H](CN)C2)c(F)cc2c1N(C1CC1)CC(C(=O)O)C2=O` (stereo not given in full) yielded an inhibition greater than 96%. Further, in assay [2], the fold change (FC) was greater than 4. The pIC50 against DNA gyrase was 6.92. In the assay listed under Homo sapiens [5], the inhibition entry was “inactive”.

`COc1c(N2CC[C@@H](CN)C2)c(F)cc2c(=O)c(C(=O)O)cn(CCCN)c12` yielded an inhibition in assay [1] of less than 5%. Besides, the fold change (FC) in assay [2] was less than 2.
